From patent publication US6482849B1, “Inhibitors of α4β1 mediated cell adhesion” (Tanabe Seiyaku Co., Ltd., priority 1997, dated 2002)
Where a name gives a salt, the structure may show the parent alone.

Key:
[1] = biological target: T1, α4β1 integrin (Jurkat T-cell adhesion to IL-1 stimulated endothelial cell monolayers) (Homo sapiens, UniProt P05556+P13612); assay: Jurkat-Endothelial Cell Adhesion Assay (Jurkat EC); format: cell-based; conditions: Jurkat cells on IL-1 stimulated HUVEC monolayers
T1 construct: a T-cell line, Jurkat, known to express the α4β1 integrin; host or cells: Jurkat T-cell line
T1 sequence (P13612 34-1032): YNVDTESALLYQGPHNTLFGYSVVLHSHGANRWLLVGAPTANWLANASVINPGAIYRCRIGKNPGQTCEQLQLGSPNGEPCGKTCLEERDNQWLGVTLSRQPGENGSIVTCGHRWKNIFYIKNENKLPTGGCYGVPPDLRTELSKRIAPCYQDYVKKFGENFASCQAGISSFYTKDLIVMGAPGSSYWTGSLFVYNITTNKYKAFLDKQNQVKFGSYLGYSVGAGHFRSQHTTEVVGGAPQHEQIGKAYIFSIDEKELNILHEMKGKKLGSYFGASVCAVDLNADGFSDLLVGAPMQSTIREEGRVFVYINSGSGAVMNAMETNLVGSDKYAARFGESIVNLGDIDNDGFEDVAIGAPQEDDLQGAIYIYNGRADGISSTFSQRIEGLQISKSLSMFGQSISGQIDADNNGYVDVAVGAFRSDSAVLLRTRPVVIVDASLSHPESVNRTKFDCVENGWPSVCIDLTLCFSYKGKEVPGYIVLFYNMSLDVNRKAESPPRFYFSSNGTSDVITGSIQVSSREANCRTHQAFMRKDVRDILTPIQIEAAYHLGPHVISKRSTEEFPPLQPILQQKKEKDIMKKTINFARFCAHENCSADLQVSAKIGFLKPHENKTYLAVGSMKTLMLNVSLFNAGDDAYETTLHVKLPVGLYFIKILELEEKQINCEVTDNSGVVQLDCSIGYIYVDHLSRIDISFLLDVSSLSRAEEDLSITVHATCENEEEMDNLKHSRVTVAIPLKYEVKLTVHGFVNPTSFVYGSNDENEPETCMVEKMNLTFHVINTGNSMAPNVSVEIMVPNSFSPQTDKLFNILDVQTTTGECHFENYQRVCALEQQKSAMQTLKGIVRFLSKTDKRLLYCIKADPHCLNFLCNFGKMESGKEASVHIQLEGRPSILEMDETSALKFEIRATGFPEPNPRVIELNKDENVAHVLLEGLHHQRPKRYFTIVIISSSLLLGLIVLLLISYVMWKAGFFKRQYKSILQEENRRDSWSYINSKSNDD
T1 sequence (P05556 21-798): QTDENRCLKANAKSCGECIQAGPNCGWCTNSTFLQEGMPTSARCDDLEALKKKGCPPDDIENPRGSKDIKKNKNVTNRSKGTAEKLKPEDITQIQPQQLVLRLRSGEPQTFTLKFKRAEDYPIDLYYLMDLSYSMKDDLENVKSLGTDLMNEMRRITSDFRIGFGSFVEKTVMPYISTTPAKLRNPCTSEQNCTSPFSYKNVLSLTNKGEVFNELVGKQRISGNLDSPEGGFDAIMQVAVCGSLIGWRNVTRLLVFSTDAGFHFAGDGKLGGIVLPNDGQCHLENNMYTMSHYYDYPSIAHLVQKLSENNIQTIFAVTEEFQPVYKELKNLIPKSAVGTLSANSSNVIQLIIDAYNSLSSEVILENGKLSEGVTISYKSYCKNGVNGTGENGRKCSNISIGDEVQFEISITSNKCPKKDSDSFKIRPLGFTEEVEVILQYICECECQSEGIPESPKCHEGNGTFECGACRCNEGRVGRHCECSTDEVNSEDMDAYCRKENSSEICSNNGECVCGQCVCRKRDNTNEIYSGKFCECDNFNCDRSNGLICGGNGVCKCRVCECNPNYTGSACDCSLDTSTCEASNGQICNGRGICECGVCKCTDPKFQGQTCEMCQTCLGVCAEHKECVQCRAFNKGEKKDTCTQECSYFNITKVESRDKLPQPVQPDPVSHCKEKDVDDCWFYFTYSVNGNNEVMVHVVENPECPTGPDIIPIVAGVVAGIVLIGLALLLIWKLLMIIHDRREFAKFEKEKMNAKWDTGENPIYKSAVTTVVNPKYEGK
Protocol: The following assay established the activity of the present compounds in inhibiting β1-mediated cell adhesion in a representative in vitro system. This assay measures the adhesive interactions of a T-cell line, Jurkat, known to express the α4β1 integrin, to endothelial monolayers in the presence of test compounds. The test compounds were added in increasing concentrations to T-cells and then the T-cell compound mixture was added to IL-1 stimulated endothelial cell monolayers. The plates were incubated, washed and the percentage of attached cells was quantitated. […] Human umbilical vein endothelial cells were purchased from Clonetics (San Diego, Calif.) at passage number 2. The cells were grown on 0.5% porcine skin gelatin pre-coated flasks (Sigma, St. Louis Mo.) in EGM-UV media (Clonetics, San Diego, Calif.) supplemented with 10% fetal bovine serum. Cells are refed every 2-3 days reaching confluence by day 4 to 6. […] The endothelial cells are not used following passage 6. Am The T-cell line Jurkat was obtained from American Type Tissue Culture Collection (Rockville, Md.) and the cells were cultured in RPMI containing 10% fetal calf serum. The cells were washed twice in Hank's Balanced Salt Solution (HBSS) and resuspended in Dulbecco's […] Eagle's Media (DMEM) containing 2.5 mg/ml Human Serum Albumin (HSA). Jurkat cells (1×10^6 cells/ml) were stained with 10 ng/ml BCECF-AM z z (Molecular Probes, Eugene, Ore.)) in HBSS without phenol red. The cells were loaded with BCECF for 60 minutes in the dark at 37° C., washed 2 times, and resusupended in DMEM-HSA solution.
Confluent endothelial monolayers, grown in 96-well tissue culture plates, were stimulated for 4 hr. at 37° C. with 0.1 ng/ml (˜50 U/ml) recombinant IL-1 (Amgen, Thousand Oaks, Calif.). Following this incubation, the monolayers were washed twice with HBSS and 0.1 ml of DMEM-HSA solution was added. Jurkat cells (5×10^5 cells) were combined with the appropriate concentration of the test compound and 0.1 ml of the Jurkat cell-compound mixture was added to the endothelial cell monolayers. Generally, 100, 20, 5 and 1.25 μM compound concentrations were tested. […] The plates were placed on ice for 5 minutes to allow for Jurkat cell settling and the plates were incubated at 37° C. for 20 minutes. Following this incubation, the monolayers were washed twice with PBS containing 1 mM calcium chloride and 1 mM magnesium chloride and the plates were read using a Millipore Cytofluor 2300 (Marlboro, Mass.). Fluorescence in each well was measured as Arbitrary Fluorescence Units and percent adhesion in the absence of compound was adjusted to 100% and the % adhesion in the presence of compound was calculated. Monolayers were also fixed in 3% paraformaldehyde and evaluated microscopically to verify the adhesion. This procedure is a modification of a previously published method (Cardarelli et al., J. Biol. Chem. 269:18668-18673 (1994)).

[2] = biological target: T2, α4β1 integrin (Jurkat cell adhesion to immobilized CS-1 derived peptide CLHPGEILDVPST) (Homo sapiens, UniProt P05556+P13612); assay: Jurkat-CS-1 Assay; format: cell-based; conditions: Jurkat cells on CS-1 peptide coated plates
T2 construct: 100 μl of Jurkat cells (2.5×10^6 cells/ml) in DMEM plus BSA; endogenous in cells; host or cells: Jurkat T-cell line
T2 sequence (P13612 34-1032): as the sequence (P13612 34-1032) above
T2 sequence (P05556 21-798): as the sequence (P05556 21-798) above
Protocol: The CS-1 derived peptide, CLHPGEILDVPST, and the scrambled control peptide, CLHGPIELVSDPT, were synthesized on a Beckman 990 synthesizer using t-Boc methodology. The peptides were immobilized onto microtiter plates using the heterobifunctional crosslinker 3-(2-pyridyldithio)propionic acid N-hydroxysuccinimide ester (SPDP) as reported by Pierschbacher et al., Proc. Natl. Acad. USA, 80:1224-1227 (1983). Microtiter plates were coated with 20 μg/ml HSA for 2 hr. at room temperature, washed once with PBS and derivatized with 10 μg/ml SPDP for 1 hr. After washing, 100 μl of a 100 μg/ml cysteine containing peptide solution which had been recently dissolved was added to the wells and allowed to crosslink to the plates overnight at 4° C. Unbound peptide was removed from plates by washing with PBS. To block non-reacted sites, the plates are coated with 100 μl of a 2.5 mg/ml BSA solution in PBS for 1 hr. at 37° C. 100 μl of Jurkat cells (2.5×10^6 cells/ml) in DMEM plus BSA (2.5 mg/ml) was mixed with an appropriate concentration of the compound to be tested and the mixture was added to peptide coated dishes and incubated for 1 hr. at 37° C. Generally 100, 20, 5 and 1.25 μM concentrations of the compound were tested.
Following this incubation the plates were washed once with PBS and the attached cells were fixed with 3% paraformaldehyde in PBS and stained with 0.5% toluidine blue in 3.7% formaldehyde. The cells were stained overnight at room temperature and the optical density at 590 nm of toluidine blue stained cells was determined using a vertical pathway spectrophotometer to quantitate attachment (VMAX Kinetic Microplate Reader, Molecular Devices, Menlo Park, Calif.). This procedure is a modification of a previously published method (Cardarelli et al, J. Biol. Chem., 269:18668-18673 (1994) and Cardarelli et al, Proc. Natl. Acad. Sci. USA, 83:2647-2651 (1986)).

Row | SMILES | IC50 [1] [nM] | IC50 [2] [nM]
1 | C[C@H](NC(=O)[C@]1(C)CC[C@H](C(=O)N[C@@H](Cc2ccc(OCc3c(Cl)cccc3Cl)cc2)C(=O)O)C1(C)C)C(=O)O (relative stereo) [Example 188, [1S-[1α, 3α(R)]]-N-[[3-[[(1-Carboxyethyl)amino]carbonyl]-2,2,3-trimethylcyclopentyl]carbonyl]-O-[(2,6-dichlorophenyl)methyl]-L-tyrosine] | 800 to 5000 | 80 to 500
2 | CC1(C)[C@@H](C(=O)N[C@@H](Cc2ccc(OCc3c(Cl)cccc3Cl)c(Cl)n2)C(=O)O)CC[C@@]1(C)C(=O)O (relative stereo) [Example 194, [1S-[1α(R*),3α]]-α-[[(3-Carboxy-2,2,3-trimethylcyclopentyl)carbonyl]amino]-6-chloro-5-[(2,6-dichlorophenyl)methoxy]-2-pyridinepropanoic acid] | 800 to 5000 | 80 to 500
3 | CC1(C)[C@@H](C(=O)N[C@@H](Cc2ccc(NC(=O)c3c(Cl)cccc3Cl)cc2)C(=O)O)CC[C@@]1(C)C(=O)N1CCC[C@@H]1C(N)=O (relative stereo) [Example 212, [1S-[1α,3α(S*)]]-N-[3-[[2-(Aminocarbonyl)-1-pyrrolidinyl]carbonyl]-2,2,3-trimethylcyclopentyl]-carbonyl]-4-[(2,6-dichlorobenzoyl)amino]-L-phenylalanine monolithium salt] | 5000 to 10000 | 80 to 500
4 | COc1ccc(Cn2cnc(C[C@H](NC(=O)[C@H]3CC[C@@](C)(C(=O)O)C3(C)C)C(=O)O)c2)cc1 [Example 31] | 5000 to 10000 | –

Other lines, results leading:

Row | IC50 [1] [nM] | IC50 [2] [nM] | SMILES
5 | 5000 to 10000 | ≤ 80 | CC1(C)[C@@H](C(=O)N[C@@H](Cc2ccc(NC(=O)c3c(Cl)cccc3Cl)cc2)C(=O)O)CC[C@@]1(C)C(=O)N[C@H](CCCCN)C(=O)O (relative stereo) [Example 179]
6 | ≤ 800 | ≤ 80 | C[C@H](NC(=O)[C@]1(C)CC[C@H](C(=O)N[C@@H](Cc2ccc(NC(=O)c3c(Cl)cccc3Cl)cc2)C(=O)O)C1(C)C)C(=O)O (relative stereo) [Example 211, [1S-[1α,3α(S*)]]-N-[[3-[[(1-Carboxyethyl)amino]carbonyl]-2,2,3-trimethylcyclopentyl]carbonyl]-4-[(2,6-dichlorobenzoyl)amino]-L-phenylalanine]
7 | 800 to 5000 | 80 to 500 | CC1(C)[C@@H](C(=O)N[C@@H](Cc2ccc(NC(=O)c3c(Cl)cccc3Cl)cc2)C(=O)O)CC[C@@]1(C)C(=O)N1CCC[C@H]1C(N)=O (relative stereo) [Example 213, [1S-[1α,3α(R*)]]-N-[3-[[2-(Aminocarbonyl)-1-pyrrolidinyl]carbonyl]-2,2,3-trimethylcyclopentyl]-carbonyl]-4-[(2,6-dichlorobenzoyl)amino]-L-phenylalanine monosodium salt]
8 | ≤ 800 | 80 to 500 | CNC(=O)[C@@H]1CCCN1C(=O)[C@]1(C)CC[C@H](C(=O)N[C@@H](Cc2ccc(NC(=O)c3c(Cl)cccc3Cl)cc2)C(=O)O)C1(C)C (relative stereo) [Example 215, [1S-[1α,3α(R*)]]-N-[3-[[2-[(Methylamino)carbonyl]-1-pyrrolidinyl]carbonyl]-2,2,3-trimethyl-cyclopentyl]carbonyl]-4-[(2,6-dichlorobenzoyl)amino]-L-phenylalanine monosodium salt]
9 | – | 80 to 500 | COC(=O)[C@H](Cc1ccc(NC(=O)c2ccccc2C)cc1)NC(=O)[C@H]1CC[C@@](C)(C(=O)O)C1(C)C [Example 137]
10 | 800 to 5000 | – | CC1(C)[C@H](C(=O)N[C@@H](Cc2ccc(OCc3c(Cl)cccc3Cl)cc2)C(=O)O)CC[C@]1(C)C(=O)O [Example 189, (1R-cis)-N-[(3-Carboxy-2,2,3-trimethylcyclopentyl)carbonyl]-O-[(2,6-dichlorophenyl)methyl]-L-tyrosine]
